Structures are written as SMILES.

As a reminder, the EC50 is the concentration giving half of the maximal effect.

The target of the first assay is T1, h FPR2 (Homo sapiens, UniProt P25090).
T1 construct: expressed in transfected cells
T1 sequence (P25090 1-351): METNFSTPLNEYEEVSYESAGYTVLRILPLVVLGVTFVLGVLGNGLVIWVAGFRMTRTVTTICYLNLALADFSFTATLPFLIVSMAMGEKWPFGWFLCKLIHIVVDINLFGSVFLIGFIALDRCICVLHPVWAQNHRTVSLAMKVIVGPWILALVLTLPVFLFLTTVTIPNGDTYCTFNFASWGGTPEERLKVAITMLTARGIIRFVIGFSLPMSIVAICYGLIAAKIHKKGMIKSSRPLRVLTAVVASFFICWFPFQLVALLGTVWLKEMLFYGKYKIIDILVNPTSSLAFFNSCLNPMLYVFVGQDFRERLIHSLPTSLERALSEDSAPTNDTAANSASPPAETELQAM
The assay is described as follows: Agonistic activity in hFPR2-Aq-CHO cells (FLIPR Calcium 5 fluorescence assay). Type of assay: cell-based. Particulars: 11 point half log dilution, final assay concentration from 10µM. The essentials:
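EC50 reflects the compound-evoked rise in Calcium 5 fluorescence over basal, recorded for 5 min on FLIPR and compared with no-compound wells. Dye-loaded hFPR2-Aq-CHO cells received half-log dilutions from 10 µM to 100 pM final in pH 7.4 HBSS buffer.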
Consider `O=C(Nc1ccc(Cl)cc1)N[C@@H]1CCN(Cc2cncc(Cl)c2)C[C@H]1c1ccc(Cl)s1` (relative stereo) [Ex-71, trans-1-(4-chlorophenyl)-3-(1-((5-chloropyridin-3-yl)methyl)-3-(5-chlorothiophen-2-yl)piperidin-4-yl)urea], for which the EC50 was 2 nM. Regarding `COc1ccc([C@@H]2CN(C(=O)C3CCNCC3)CC[C@H]2NC(=O)Nc2ccccc2)nc1` (relative stereo) [Ex-151, trans-1-[3-(5-Methoxy-pyridin-2-yl)-1-(piperidine-4-carbonyl)-piperidin-4-yl]-3-phenyl-urea], the EC50 came out at 35 nM.

On to `O=C(Nc1ccccc1)N[C@@H]1CCN(C(=O)C2CCNCC2)C[C@H]1c1ccc(Cl)cn1` (relative stereo) [Ex-167, trans-1-[3-(5-Chloro-pyridin-2-yl)-1-(piperidine-4-carbonyl)-piperidin-4-yl]-3-phenyl-urea], for which the half-maximal effective concentration (EC50) was 85 nM. Turning to `CS(=O)(=O)n1ccc(CN2CC[C@@H](NC(=O)Nc3ccc(Cl)cc3)[C@H](c3ccc(Cl)s3)C2)n1` (single isomer, unassigned) [Ex-77, trans-1-(4-chlorophenyl)-3-[3-(5-chlorothiophen-2-yl)-1-[(1-methanesulfonyl-1H-pyrazol-3-yl)methyl]piperidin-4-yl]urea], the EC50 is 0.06 nM.

Turning to `COc1ccc([C@@H]2CN(Cc3ccc(C)nc3)CC[C@H]2NC(=O)Nc2ccc(Cl)cc2)nc1` (relative stereo) [Ex-67, trans-1-(4-chlorophenyl)-3-[-3-(5-methoxypyridin-2-yl)-1-[(6-methylpyridin-3-yl)methyl]piperidin-4-yl]urea], the EC50 came out at 0.08 nM.

Take `COCCCN1CC[C@@H](NC(=O)Nc2ccc(Cl)cc2)[C@H](c2ncc(OC)cc2F)C1` (relative stereo) [Ex-193, trans-1-(4-chlorophenyl)-3-[3-fluoro-5-methoxy-1'-(3-methoxy-propyl)-1',2',3',4',5',6'-hexahydro-[2,3']bipyridinyl-4'-yl]-urea]: the EC50 came out at 1 nM.

On to `COc1ccc([C@@H]2CN(C(=O)CN(C)C)CC[C@H]2NC(=O)Nc2cc(C)ns2)nc1` (relative stereo) [Ex-118, trans-1-[1-(2-Dimethylamino-acetyl)-3-(5-methoxy-pyridin-2-yl)-piperidin-4-yl]-3-(3-methyl-isothiazol-5-yl)-urea], for which the concentration for a half-maximal effect (EC50) is 5 nM. For the compound `COc1ccc([C@@H]2CN(CCC(C)(C)C#N)CC[C@H]2NC(=O)Nc2ccc(Cl)cc2)nc1` (relative stereo) [Ex-144, trans-1-(4-Chlorophenyl)-3-[1-(3-cyano-3-methyl-butyl)-3-(5-methoxy-pyridin-2-yl)-piperidin-4-yl]-urea], the EC50 is 1 nM.

On to `COc1ccc([C@@H]2CN(Cc3cncc(Cl)c3)CC[C@H]2NC(=O)Nc2ccc(Cl)cc2)nc1` (relative stereo) [Ex-69, trans-1-(4-chlorophenyl)-3-[1-[(5-chloropyridin-3-yl)methyl]-3-(5-methoxypyridin-2-yl)piperidin-4-yl]urea], for which the half-maximal effective concentration (EC50) is 0.07 nM. On the same count and under the same terms, the same measure for `COc1ccc([C@@H]2CN(CC(C)(C)O)CC[C@H]2NC(=O)Nc2cc(C)ns2)nc1` (single isomer, unassigned) [Ex-177, trans-1-[1-(2-Hydroxy-2-methyl-propyl)-3-(5-methoxy-pyridin-2-yl)-piperidin-4-yl]-3-(3-methyl-isothiazol-5-yl)-urea]: 1.4 nM; for `CS(=O)(=O)n1ccc(CN2CC[C@@H](NC(=O)Nc3ccccc3)[C@H](c3ccc(Cl)s3)C2)n1` (single isomer, unassigned) [Ex-57, trans-1-(-3-(5-chlorothiophen-2-yl)-1-((1-(methylsulfonyl)-1H-pyrazol-3-yl)methyl)piperidin-4-yl)-3-phenylurea]: 55 nM. The same measure, in the same setting: the same measure for `COc1ccc([C@@H]2CN(CC3CCNCC3)CC[C@H]2NC(=O)Nc2ccc(Cl)cc2)nc1` (single isomer, unassigned) [Ex-124, trans-1-(4-chlorophenyl)-3-(3-(5-methoxypyridin-2-yl)-1-(piperidin-4-ylmethyl)piperidin-4-yl)urea]: 0.03 nM; for `COc1ccc([C@@H]2CN(CC3(O)CC3)CC[C@H]2NC(=O)Nc2cc(C)ns2)nc1` (relative stereo) [Ex-182, trans-1-[1'-(1-hydroxy-cyclopropylmethyl)-5-methoxy-1',2',3',4',5',6'-hexahydro-[2,3']bipyridinyl-4'-yl]-3-(3-methyl-isothiazol-5-yl)-urea]: 2 nM; for `COc1ccc([C@@H]2CN(C(=O)c3ccc(C(F)(F)F)nc3)CC[C@H]2NC(=O)Nc2ccc(C#N)cc2)nc1` (relative stereo) [Ex-141, trans-1-(4-Cyano-phenyl)-3-[3-(5-methoxy-pyridin-2-yl)-1-[6-(trifluoromethyl)-pyridine-3-carbonyl]-piperidin-4-yl]-urea]: 1.2 nM. Turning to `COc1ccc([C@@H]2CN(C(=O)c3ccc(C(F)(F)F)nc3)CC[C@H]2NC(=O)Nc2ccc(Cl)cc2)nc1` (single isomer, unassigned) [Ex-101, trans-1-(4-chlorophenyl)-3-[(5-methoxypyridin-2-yl)-1-{[6-(trifluoromethyl)pyridin-3-yl]carbonyl}piperidin-4-yl]urea], the EC50 amounted to 0.11 nM.

For `COc1cnc([C@@H]2CN(CC(N)=O)CC[C@H]2NC(=O)Nc2ccc(Cl)cc2)c(F)c1` (relative stereo) [Ex-222, trans-2-{4'-[3-(4-chlorophenyl)-ureido]-3-fluoro-5-methoxy-3',4',5',6'-tetrahydro-2'H-[2,3']bipyridinyl-1'-yl}-acetamide], the EC50 is 0.3 nM. With `COc1ccc([C@H]2CN(C(C)(C)C(N)=O)CC[C@@H]2NC(=O)Nc2ccc(Cl)cc2)nc1` [Ex-225], the half-maximal effective concentration (EC50) worked out at 8 nM. On to `COc1ccc([C@@H]2CNCC[C@H]2NC(=O)Nc2ccc(Cl)cc2)nc1` (relative stereo) [Ex-112, trans-1-(4-chlorophenyl)-3-[3-(5-methoxypyridin-2-yl)piperidin-4-yl]urea], for which the concentration giving a half-maximal response (EC50) is 1.2 nM.

Regarding `COc1ccc([C@@H]2CN(C3(C(N)=O)CC3)CC[C@H]2NC(=O)Nc2ccc(Cl)cc2)nc1` (relative stereo) [Ex-181, trans-1-[4-[[(4-Chlorophenyl)-carbamoyl]amino]-3-(5-methoxy-pyridin-2-yl)-piperidin-1-yl]-cyclopropane-1-carboxylic acid amide], the EC50 came out at 0.9 nM. Regarding `O=C(Nc1ccc(Cl)cc1)N[C@@H]1CC(=O)N(c2ccc(F)cc2)C[C@H]1c1ccc(Cl)cn1` (relative stereo) [Ex-14, trans-1-(4-chlorophenyl)-3-[5-(5-chloropyridin-2-yl)-1-(4-fluorophenyl)-2-oxopiperidin-4-yl]urea], the EC50 is 0.4 nM. On the same count and under the same terms, the same measure for `COc1ccc([C@@H]2CN(CC(F)F)CC[C@H]2NC(=O)Nc2ccc(C#N)cc2)nc1` (racemic) [Ex-113, trans-1-(4-cyanophenyl)-3-[1-(2,2-difluoroethyl)-3-(5-methoxy-2-pyridyl)-4-piperidyl]urea]: 1.2 nM; for `COc1cnc([C@@H]2CN(C3COC3)CC[C@H]2NC(=O)Nc2ccc(Cl)cc2)c(F)c1` (relative stereo) [Ex-218, trans-1-(4-chloro-phenyl)-3-(3-fluoro-5-methoxy-1'-oxetan-3-yl-1',2',3',4',5',6'-hexahydro-[2,3']bipyridinyl-4'-yl)-urea]: 4 nM; for `COc1ccc([C@H]2CN(c3ccc(F)cc3)C(=O)C[C@H]2NC(=O)Nc2ccc(Cl)cc2)nc1` (relative stereo) [Ex-11, cis-1-(4-chlorophenyl)-3-[1-(4-fluorophenyl)-5-(5-methoxypyridin-2-yl)-2-oxopiperidin-4-yl]urea]: 6 nM. The same measure, in the same setting: the same measure for `O=C(Nc1ccc(Cl)cc1)N[C@@H]1CCN(CCCO)C[C@H]1c1ccc(Cl)s1` (relative stereo) [Ex-105, trans-1-(4-chloro-phenyl)-3-[3-(5-chloro-thiophen-2-yl)-1-(3-hydroxy-propyl)-piperidin-4-yl]-urea]: 11 nM; for `O=C(Nc1ccccc1)N[C@@H]1CCN(CC2CNC2)C[C@H]1c1ccc(Cl)cn1` (relative stereo) [Ex-186, trans-1-(1'-azetidin-3-ylmethyl-5-chloro-1',2',3',4',5',6'-hexahydro-[2,3']bipyridinyl-4'-yl)-3-phenyl-urea]: 27 nM.

Take `COc1ccc([C@@H]2CN(C(=O)CN(C)C)CC[C@H]2NC(=O)Nc2ccc(Cl)cc2)nc1` (racemic) [Ex-94, trans-1-(4-chloro-phenyl)-3-[1'-(2-dimethylamino-acetyl)-5-methoxy-1',2',3',4',5',6'-hexahydro-[2,3']bipyridinyl-4'-yl]-urea]: the half-maximal effective concentration (EC50) amounted to 2 nM. Same read-out and setting: the same measure for `O=C(Nc1ccc(Cl)cc1)N[C@@H]1CCN(C(=O)C2CCC(O)CC2)C[C@H]1c1ccc(Cl)s1` (relative stereo) [Ex-132, trans-1-(4-Chlorophenyl)-3-[3-(5-chloro-thiophen-2-yl)-1-(4-hydroxy-cyclohexanecarbonyl)-piperidin-4-yl]-urea]: 39 nM.

Staying with this assay, now noted: agonistic response at 0.1µM.
Take `O=C(Nc1ccccc1)N[C@@H]1CCN(C2CNC2)C[C@H]1c1ccc(Cl)cn1` (relative stereo) [Ex-185, trans-1-(1'-azetidin-3-yl-5-chloro-1',2',3',4',5',6'-hexahydro-[2,3']bipyridinyl-4'-yl)-3-phenyl-urea]: the activation at 0.1 µM came out at 19%.

The record behind these values is EP3789378A1, “PIPERIDINES OR PIPERIDONES SUBSTITUTED WITH UREA AND HETEROARYL” (Grünenthal GmbH, priority 2019, dated 2021).
